Assay results: a melting point compilation (Tetko et al.; mined from patent text by program, amines drawn as free bases though some values may be those of a salt)

SMILES	melting point
O=[N+]([O-])c1cnn(-c2c(Cl)cc(Cl)cc2Cl)c1Cl	78 to 84 °C
CCCc1nc(CO)c(C(=O)OCC)n1Cc1ccc(-c2ccccc2-c2nnnn2C(c2ccccc2)(c2ccccc2)c2ccccc2)cc1	135 to 138 °C
N#Cc1cc(Oc2ccccc2)ccc1O	112 to 114 °C
FC(F)(F)c1cc(Cc2ccc(Cl)c(C(F)(F)F)c2)ccc1Cl	98 to 101 °C
CC(C)(C)OC(=O)N1CC2CC1C(=O)S2 (stereo unspecified)	91 °C
CN1CCC(C2c3ccccc3C=Cc3ccccc32)CC1	127 °C
N#Cc1cccc(Oc2ccc(CBr)cc2)c1C#N	130 to 132 °C
O=[N+]([O-])C(=Cc1ccoc1)C1=NCCN1Cc1ccc(Cl)nc1	175 to 176 °C
CC(C)N(Cc1cnc(-c2ncn3c2CN(C)C(=O)c2cc(F)ccc2-3)o1)C(C)C	176 to 178 °C
CC(C)c1nc(N)nc(-c2ccc(F)c3ccccc23)c1Br	176 to 180 °C
Cc1cc(S(=O)(=O)F)ccc1Br	47 to 48 °C
COc1ccc(C(=O)Nc2ccccc2)cc1NC(=S)Nc1ccc(Cl)c([N+](=O)[O-])c1	174 to 175 °C
CCN1C(=O)C(C)Oc2ccc(-n3c(=O)cc(C(F)(F)F)n(C)c3=O)cc21 (stereo unspecified)	221 to 222 °C
Cc1ccc2[nH]c3c(N)nn(C)c3c(=O)c2c1	> 300 °C
CCOC(=O)C(C(=O)OCC)C(=O)c1cc(OC)c(OC)c([N+](=O)[O-])c1	70 °C
COc1ccc2cc(C(=O)C34CC5CC(CC(C5)C3)C4)oc2c1	99 to 101 °C
CCCCCCCCCCCCCCCCCCNC(=O)SCC(CO)OC (stereo unspecified)	62 to 63 °C
COc1ccc(C=CC(=O)c2c(OC)cc(OC)cc2OC(=O)c2ccc(OC)cc2OC)cc1	119 to 120 °C
O=C(/C=C/c1ccc(Br)cc1)/C=C/c1ccc(Br)cc1	211 to 213 °C
CCCCCCCNC(=O)Nc1ccccc1C(=O)NCCCC1CCN(C(c2ccccc2)c2ccccc2)C1 (stereo unspecified)	109 to 111 °C
COc1ccc2ccccc2c1C(=O)/C=C/c1ncn(C(c2ccccc2)(c2ccccc2)c2ccccc2)c1C	220 to 222 °C
Cc1nccn1CCCc1ccc(OCc2coc(/C=C/c3ccccc3)n2)cc1	93 to 94 °C
Cc1ccc(-c2ccc3cc(C(=O)Nc4ccc(CN(C)C5CCOCC5)cc4)n(C)c3c2)cc1	225 to 226 °C
Clc1ccc2sc(=NCCc3c[nH]c4ccccc34)sc2c1	145 to 147 °C

SMILES	melting point
OCc1ccc(C2=NOC(c3cc(Cl)cc(Cl)c3)(C(F)(F)F)C2)cc1Cl (stereo unspecified)	32 to 35 °C
CNc1ccc2cc(OC)ccc2c1N=O	261 °C
CC(Nc1ncnc2[nH]cnc12)c1oc2cccc(F)c2c(=O)c1-c1cccc(F)c1 (stereo unspecified)	195 to 198 °C
CCOC(=O)NNC(=O)Nc1ccc(C(F)(F)F)cc1	205 to 208 °C
CP1(=O)c2ccccc2CN1c1ccc(Oc2ccccc2)cc1 (stereo unspecified)	176 to 177 °C
COc1cc(C(=O)NC=NC(=O)ON(c2ccc(C)c(NC(=O)c3ccc(C(=O)c4ccccc4)cc3)c2)C(C)(C)C)cc(OC)c1OC	96 °C
Cn1nc(Cl)cc(Nc2ccn(C3CN(C(=O)OC(C)(C)C)C3)n2)c1=O	154 to 156 °C
CN1CCCCC1CCc1ccccc1NC(=O)c1ccc([N+](=O)[O-])cc1 (stereo unspecified)	162 to 164 °C
c1ccc2c(c1)C[C@H]1CSC(=Nc3cccc4ccncc34)N1C2	206 °C
Cc1cc(CCCOc2c(C)cc(-c3noc(=N)[nH]3)cc2C)on1	175 to 183 °C
COC(=O)NNC(=O)c1cc(OC)c(OC)c(OC)c1	145 °C
Nc1ncnc2c1c(-c1ccc(Oc3ccc(OCCO)cc3)cc1)cn2CCO	166 °C
Cc1nc(N2CCN(CC3CC3)C2=O)sc1C(=O)NCc1cncc(F)c1	144 to 145 °C
CN(C)CC1=Cc2ccc(C(=O)Nc3ccc(Br)cc3)cc2CC1	175 to 179 °C
CC1(C)OC(=O)Nc2c(F)cc(-c3csc(C#N)c3)cc21	250 to 251 °C
O=c1oc(-c2ccc(F)cc2)nc2cccc(F)c12	189 to 193 °C
OC(CNC1CCc2ccccc2C1)COc1ccccc1Cl (stereo unspecified)	98 to 101 °C
CCCCc1c(-c2cnccn2)ssc1=S	72 °C
Cc1c(C(=O)O)ccc2c1[nH]c1ccccc12	> 240 °C
O=C(O)c1ccc(C(=O)NOCCCc2ccccc2)cc1	171 to 173 °C
Cc1cc(=O)[nH]c2c1C(=O)CC(c1ccccc1Cl)C2 (stereo unspecified)	290 to 291 °C
CCCc1c(O)ccc2oc(Cc3ccc(OC)cc3)c(C)c12	91 to 93 °C
Cc1ncn(Nc2ccccc2)c1-c1ccccc1	165 to 167 °C
O=S(=O)(NS(=O)(=O)c1ccc(CCBr)cc1)c1ccccc1	148 to 150 °C

SMILES	melting point
COc1cc2ccccc2cc1NC(=O)N1CCN(c2cc(C)cc(C)c2)CC1	105 to 107 °C
CCCn1cnc2c1c(=O)n(CCCC(C)(O)C#CCN1CCN(C)CC1)c(=O)n2C (stereo unspecified)	168 °C
OCCc1ccc(OCc2ccc(Cl)cc2Cl)cc1	55 °C
O=C(O)CN1C(=O)c2cccc([N+](=O)[O-])c2C1=O	200 to 202 °C
NCCOc1cccc2c1CC(=O)N2	146 to 148 °C
CCc1ncnc2cc(O)c(OC)cc12	210 to 215 °C
Cc1c(C)c2c(c(C)c1NC(=O)CC(C)(C)C)C(C1CCCCC1)C(C)(C)O2 (stereo unspecified)	198 to 199 °C
C[C@H](N)C(=O)NC1N=C(c2ccccc2Cl)c2cc(Cl)ccc2N(C)C1=O (stereo partly specified)	232 to 233 °C
CC(C)c1cnn2c(O)cc(O)nc12	242 to 243 °C
COCCCOc1ccc(/C=C(\OC)C(=O)O)c(Oc2ncc(C(F)(F)F)cc2Cl)c1	140 to 141 °C
CC(=Cc1ccc(Cl)cc1Cl)[N+](=O)[O-]	75 °C
COc1c(C)cc(N=C=S)cc1C(=S)N(C)C	74 to 75 °C
Cc1cc(NC(=O)c2c(Cl)cccc2Cl)c2nccc(NNC(C)C)c2c1	154 to 156 °C
CN(C)C=Cc1cc(Cl)c(Cl)cc1[N+](=O)[O-]	171 to 174 °C
CCc1cccc(Nc2nc(NCc3ccc(C)o3)nc(OCC(F)(F)F)n2)c1	55 to 57 °C
Cn1c2ccccc2c(=O)c2c(Cl)cccc21	183 to 186 °C
O=C(O)Cc1ccccc1OCCNC(=O)C1Cc2ccccc2N1S(=O)(=O)c1ccc(-c2cccc(C(F)(F)F)c2)cc1 (stereo unspecified)	131 to 134 °C
CCn1nnc2cc3c(N4CCN(C(=O)Nc5ccc(Oc6ccccc6)cc5)CC4)ncnc3cc21	167 to 168 °C
Cn1c(Cc2c(F)cccc2F)nnc1C(N)=O	189 to 190 °C
CC(C)(C)CC(C)(C)c1cc(-n2nc3ccc(Cl)cc3n2)c(O)c(C(C)(C)c2ccccc2)c1	104 to 105 °C
CCc1c(-c2ccc(OCc3ccccc3)cc2)c2cc(C(=O)O)c3cccc1n32	223 to 224 °C
O=C(CC1(c2ccccc2)CCCCC1)C(=O)Nc1ccc2c(c1)COC2=O	120 to 123 °C
COC(=O)c1cc2cc(OC)c(OC)cc2c(-c2ccnc(-n3c(=O)cc(OCC(=O)OCc4ccccc4)c4ccccc43)c2)c1C(=O)OC	186 to 189 °C
